Measurements published in patent US20070264363A1, “Molluscicidal and Anti-Barnacle Compounds” (priority 2003, published 2007).
“And” between values parts separate entries of the source, which are not always exact repeats. Equal entries are not always repeated.

Tests used:
[1] = system: D. reticulatum slugs; assay: Leaf disc assay (no choice-feeding bioassay on lettuce leaf discs); assay type: in vivo; conditions: for amount of lettuce leaf consumed was reduced: solubilisation in aqueous tween 80 (0.5%)
Protocol: Adult D. reticulatum were collected from nearby fields and maintained in plastic trays lined with moist, unbleached, absorbent paper They were housed in the dark and at a constant temperature of 10°±1° C. Slugs were regularly fed on a mixture of iceberg lettuce and carrots. Slugs, with a weight 300-600 mg, were pre-starved for 24 hours and maintained at a constant temperature of 15°±1° C. prior to testing.
The technique described here is a no choice-feeding bioassay using circular discs prepared from lettuce leaves. Selected terpenes were tested against D. reticulatum slugs and evaluated for their repellent/antifeedant and molluscicidal properties.
Lettuce leaf discs (1.4 cm^2) were placed in petri dishes lined with water saturated filter paper ([…] diameter). A known concentration of terpene oil, solubilised in the appropriate media, was prepared and a fixed volume (50 μl) added by pipette, onto individual lettuce leaf discs. Any residual solvent was left to evaporate for a minimum time of 30 iminutes.
Slugs, previously starved for 24 hours, were introduced to the petri dishes and placed in an environmentally controlled chamber (15° C.: 12 hours day, 15° C.: 12 hours night) for 24 hours.
The amount of leaf disc damaged (eaten) was quantified by comparing digital photographs of treated leaf discs with untreated (control) leaf discs, using photographic computer software. The experiment was replicated 20 times for each terpene.
To compare the change in feeding behaviour for different treatments, the leaf damage data was corrected for the control, using the repellency index equation below. [formula]
The antifeedant effect of various media was determined by comparison to untreated leaf discs. A positive R I value indicates a reduction in feeding (antifeedant/repellent) whereas a negative value indicates an increase in feeding behaviour (phagostimulant). Corrections for mortality were done the Abbotts formula (Abbott, 1925). [formula] Bioassay Assay Results: Leaf Disc Assay

[2] = system: field slug, D. reticulatum; conditions: in vivo; cited from earlier work
[3] = system: garden snail H. aspersa; assay: Spray trial with ocimene and bisabolol formulations (Example 8); assay type: in vivo; conditions: 1% in aq. Tween 20 (1%)
[4] = system: garden snail H. aspersa; assay: as above; assay type: in vivo; conditions: for Repellency Index: RI relative to water
Source text: Example 7 was repeated wherein the lettuce leaves were sprayed with 5% trans-β-ocimene in Tween 20 and the anti-feedant properties tested on the garden snail H. aspersa.
5 and 10% Ocimene and Bisabolol (H. aspersa)

[5] = system: Balanus amphitrite day 3 cyprids; assay: Barnacle settlement repeated, cyprids incubated in 10^−5-10^−9M; assay type: in vivo; conditions: after 24 hr
Protocol: The barnacle settlement experiments were repeated; however, this time 10 Balanus amphitrite day 3 cyprids were incubated in varying concentrations (10^−5-10^−9M) of trans-β-ocimene at 28° C. in dark conditions. Each concentration was replicated four times, with a control run. The number of cyprids that had settled, still active, floating on the surface meniscus or dead was counted after 24 and 48 hr incubations. Results are expressed as a % of the total cyprid number in each well minus floating cyprids, as these were unable to settle. Values are expressed as mean ±SEM. The amount of settlement at each concentration was compared to the control settlement using an unpaired t-test.

[6] = system: D. reticulatum slugs; assay: Spray trial (controlled temperature units) monitored over 7 days (Example 9); assay type: in vivo; conditions: for % Leaf Damage: 5% oil emulsion spray; for % Mortality: 5% spray
Source text: The same spray trial as in the previous examples was repeated and leaf damage monitored for 7 days.
Spray Trial (Controlled Temperature Units) Monitoring Leaf Damage Over 7 Days (D. reticulatum)
Spray Trial (Controlled Temperature Units) Monitoring Mortality Over 7 Days (D. reticitlatum)

[7] = system: cyprid larvae of the marine barnacle Balanus amphitrite; assay: Barnacle settlement in multi-welled plates, extract evaporated to dryness; assay type: in vivo; conditions: top two doses, 24 hrs
Protocol: The settlement of the barnacle Balanus Amphitrite was tested in multi-welled plates in the laboratory. Myrrh and scented Myrrh were extracted in ethanol and 2 ml aliquots from a range of concentrations (50% v/v to 1.5% v/v) were evaporated to dryness in each well of a multi welled plate. Ethanolic trans-β-Ocimene a component of scented Myrrh was also applied in the manner over a range of concentrations (50% v/v to 1.5-% v/v). After evaporation saltwater containing active cyprid larvae was introduced to each well and their settlement and activity measured after 24 hrs.

[8] = system: D. reticulatum; assay: Spray trial, lettuce leaves on peat soil (Example 7); assay type: in vivo, Deroceras reticulatum; conditions: 3% in water, 24 hours
Protocol: To evaluate the efficacy of trans-β-ocimene emulsions using peat substrates lettuce leaves were sprayed with 12 ml of an aqueous ocimene emulsion (3%). Once sprayed the leaves were placed in plastic trays containing peat soil and left for 30 minutes to remove the excess liquid drops. After this time period two adult slugs, previously starved for 24 hours, were added to each plastic tray and left for 24 hours.
A control (water) was treated similarly. Four replicates were prepared for each treatment.
Repellency indices were calculated as described for the leaf disc bioassay.

[9] = system: eggs of D. reticulatum; conditions: applied at a rate of 4.6 kg/ha; cited from earlier work

C=C/C(C)=C\CC=C(C)C [cis-β-Ocimene]
Repellency Index ([1]; 0.35% in Aq. Tween 80 (0.2%)): 84% | Corrected Mortality ([1]; in vivo): 15% | mortalities ([1]; in vivo): Low | amount of lettuce leaf consumed was reduced [1]: 84%

C=C/C(C)=C/C/C=C(\C)CCC=C(C)C [α-farnesene]
Repellency Index ([1]; 0.7% in ethanol): 60% | Repellency Index ([1]; 2.7% in ethanol): 97%

Cc1ccc(C(C)C)c(O)c1 [thymol]
mollusc repellent activity [2]: effective mollusc repellents

CC(C)=CCC[C@](C)(O)C1CC=C(C)CC1 (stereo partly drawn) [α-bisabolol]
% Leaf Damage ± SEM [3]: 10 ± 0% | Repellency Index ([4]; 1% in aq. Tween 20 (1%)): 90 | % Mortality ± SEM ([4]; in vivo): 0%

CC(C)=CCC/C(C)=C/CC/C(C)=C\CO [cis, trans farnesol]
Corrected Mortality ([1]; 0.95% in ethanol): 0% | Repellency Index ([1]; 0.95% in ethanol): 77%

C=C/C(C)=C/CC=C(C)C [trans-β-Ocimene]
Corrected Mortality ([1]; 0.1% in ethanol): 0% | Repellency Index ([1]; 0.1% in ethanol): 5% | Corrected Mortality ([1]; 0.22% in Aq. Dmso (10%)): 0% | Repellency Index ([1]; 0.22% in Aq. Dmso (10%)): 2% | Corrected Mortality ([1]; 0.45% in Aq. Dmso (2.5%)): 20% | Repellency Index ([1]; 0.45% in Aq. Dmso (2.5%)): 91% | Corrected Mortality ([1]; 0.45% in Aq. Dmso (10%)): 70% | Repellency Index ([1]; 0.45% in Aq. Dmso (10%)): 90% | Corrected Mortality ([1]; 0.45% in Aq. Tween 80 (0.2%)): 20% | Repellency Index ([1]; 0.45% in Aq. Tween 80 (0.2%)): 91% | Corrected Mortality ([1]; 0.45% in Aq. Tween 80 (0.5%)): 10% | Repellency Index ([1]; 0.45% in Aq. Tween 80 (0.5%)): 73% | Corrected Mortality ([1]; 0.45% in Water): 90% | Repellency Index ([1]; 0.45% in Water): 100% | Corrected Mortality ([1]; 0.45% in ethanol, 24 hours): 0% | Repellency Index ([1]; 0.45% in ethanol, 24 hours): 35% | Corrected Mortality ([1]; 0.90% in Aq. Dmso (10%)): 75% | Repellency Index ([1]; 0.90% in Aq. Dmso (10%)): 92% | Corrected Mortality ([1]; 0.9% in ethanol): 5% | Repellency Index ([1]; 0.9% in ethanol): 95% | Corrected Mortality ([1]; 2.7% in Aq. Dmso (10%)): 95% | Repellency Index ([1]; 2.7% in Aq. Dmso (10%)): 100% | mortalities ([1]; Examples 2 and 4, aqueous tween 80): Low | slug mortality ([1]; pure oil, immediately on contact): 100% | amount of lettuce leaf consumed was reduced [1]: 73% | inhibition of settlement ([5]; 10^−5-10^−9M, 28° C., dark): inhibition of settlement in a reverse dose-dependent manner | settlement compared to the control (unpaired t-test) ([5]; lowest concentration (10^−9M)): statistically different from the control | % Leaf Damage ([6]; Day 1): 0% | % Leaf Damage ([6]; Day 2): 0% | % Leaf Damage ([6]; Day 3): 0% | % Leaf Damage ([6]; Day 4): 0% | % Leaf Damage ([6]; Day 5): 0% | % Leaf Damage ([6]; Day 6): 0% | % Leaf Damage ([6]; Day 7): 0% | % Mortality ([6]; Day 1): 67% | % Mortality ([6]; Day 2): 80 ± 12% | % Mortality ([6]; Day 3): 87 ± 7% | % Mortality ([6]; Day 4): 87 ± 7% | % Mortality ([6]; Day 5): 93 ± 7% | % Mortality ([6]; Day 6): 93 ± 7% | % Mortality ([6]; Day 7): 93 ± 7% | state of larvae [7]: all floating on the surface but were ‘mutated’ | Leaf damage ([8]; 12 ml spray, single replicates 1-4): 18.69% and 9.33% and 0.00% and 0.99% | Repellency Indices [8]: 76.5% | Mean Leaf damage ([8]; four replicates): 7.25% | Repellency Indices ([8]; listed as trans-β-ocimene): 77% | mortality ([8]; peat containers): No mortality | % Leaf Damage ± SEM ([4]; 5% in Water): 79 ± 9 NS % | % Mortality ± SEM ([4]; 5% in Water): 0% | Repellency Index ([4]; 5% in Water): 21 | % Leaf Damage ± SEM ([4]; 5% in aq. Synperonic (0.025%)): 2 ± 2 % | % Mortality ± SEM ([4]; 5% in aq. Synperonic (0.025%)): 17 ± 7 % | Repellency Index ([4]; 5% in aq. Synperonic (0.025%)): 98 | % Leaf Damage ± SEM ([4]; 5% in aq. Synperonic (5%)): 0 ± 0 % | % Mortality ± SEM ([4]; 5% in aq. Synperonic (5%)): 0% | Repellency Index ([4]; 5% in aq. Synperonic (5%)): 100 | % Leaf Damage ± SEM ([4]; 5% in aq. Tween 20 (5%)): 0 ± 0 % | % Mortality ± SEM ([4]; 5% in aq. Tween 20 (5%)): 0% | Repellency Index ([4]; 5% in aq. Tween 20 (5%)): 100 | % Leaf Damage ± SEM ([4]; 10% in Water): 0 ± 0 % | % Mortality ± SEM ([4]; 10% in Water): 5% | Repellency Index ([4]; 10% in Water): 100

CC(C)=CCC/C(C)=C/CC/C(C)=C/CO [trans, trans farnesol]
Repellency Index ([1]; 0.96% in ethanol): 96% | Corrected Mortality ([1]; in vivo): 0%

CC(C)=CCC/C(C)=C1/CC=C(C)CC1 [γ-bisabolene]
Corrected Mortality ([1]; 0.7% in ethanol): 0% | Repellency Index ([1]; 0.7% in ethanol): 70%

CC(C)[C@@H]1CC[C@@H](C)CC1=O [menthone]
molluscicidal activity [2]: potent molluscicides

C=C(C)C1CC=C(C)C(=O)C1 (stereo not shown) [Carvone, carvone]
time to induce death [9]: 2 days | molluscicidal activity [2]: potent molluscicides

C=C1CC/C=C(\C)CC[C@@H]2[C@@H]1CC2(C)C [Carophyllene]
Corrected Mortality ([1]; 0.96% in ethanol): 15% | Repellency Index ([1]; 0.96% in ethanol): 40%

CC1CCC(C(C)C)C(O)C1 (stereo not shown) [menthol]
mollusc repellent activity [2]: effective mollusc repellents | molluscicidal activity [2]: potent molluscicides

C=C1/C=C/C(C(C)C)CC/C(C)=C/CC1 (stereo not shown) [Germacrene D]
Corrected Mortality ([1]; 0.4% in ethanol): 0% | Repellency Index ([1]; 0.4% in ethanol): 77%

CC1=CCC(C(C)(C)O)CC1 (stereo not drawn) [α-terpineol]
mollusc repellent activity [2]: effective mollusc repellents
